Drawing on PubChem BioAssay (NCI), this text covers GI50 and TGI for 16 compounds.

“And” between values parts separate entries of the source, which are not always exact repeats. Identical values can stand only once.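 These data come from cells grown in 96-well plates and exposed to compound for 48 hours at five concentrations. GI50: concentration for 50% inhibition of growth. TGI is the concentration that stops growth completely.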

One experiment concerns RXF 393 renal. Description: NCI tumour cell line growth inhibition, 48 h.
As for `O=C1NC(=O)C(N2C(=O)c3ccccc3C2=O)CC1O` (stereo not drawn), the GI50 was above 100 µM and the TGI is above 100 µM.

As to `COc1ccc2c(c1)N(CCO)C1=C(C(=O)OC1)C2c1cccc(F)c1` (stereo not drawn), the GI50 is 0.555 µM and the TGI is above 50 µM.

For `C/C(=C\c1ccc2ccccc2c1)[N+](=O)[O-]`, the GI50 is 1.65 µM and the TGI was 3.06 µM.

Regarding `C=CC(=O)Nc1cccc(Oc2nc(Nc3ccc(N4CCN(C)CC4)cc3)nc3ccsc23)c1`, the GI50 was 1.54 µM; the TGI was 3.31 µM and 4.26 µM.

Take `OCc1ccc(N2CCCC2c2ccccc2)cc1Cl` (stereo not drawn): the GI50 was 3.2 µM and the TGI came out at 15.2 µM.

Regarding `COC1C=COC2(C)Oc3c(C)c(O)c4c(c3C2=O)/C(=N/C2CCC(O)OC2C)C=C(NC(=O)/C(C)=C\C(=O)C2CC2C(O)C(C)C(O)C(C)C(OC(C)=O)C1C)C4=O` (stereo not drawn), the TGI was found to be 3.45 µM.

Take `CC(=O)/C=C/c1cn(C(=O)OC(C)(C)C)c2ccc(Br)cc12`: the GI50 is 15.6 µM and the TGI amounted to 37 µM.

Regarding `CCOc1ccccc1C(=O)N1CCN(c2cc(Cl)cc(Cl)c2)CC1`, the GI50 is 0.0175 µM and the TGI turned out to be 1.06 µM.

As for `NC(CSC1c2ccccc2-c2ccccc21)C(=O)O` (stereo not drawn), the TGI was above 100 µM.

`O=C1c2c(c3c4ccccc4[nH]c3c3ccc4ccccc4c23)C(=O)N1CCN1CCNCC1`: the GI50 is 1.76 µM and the TGI was determined as 3.39 µM.

On to `Cc1cc(S(=O)(=O)/N=C(/N)Nc2ccccc2O)c(SCc2ccccc2)cc1Cl`, for which the GI50 was 12.1 µM and the TGI came to 27.9 µM.

In the case of `O=C1CCC(N2Cc3cc(CNC(=O)C(F)(F)c4ccc(Cl)cc4)ccc3C2=O)C(=O)N1` (stereo not drawn), the GI50 is 19 µM and the TGI was above 100 µM.

With `O=C(O)CN1CCN(CC(=O)O)CC(=O)[O][Hg][O]C(=O)C1`, the GI50 is 18.1 µM and the TGI came to 32.5 µM.

With `CCOC(=O)C1=C(C)N(c2ccc(Cl)cc2)[C@]2(C#N)C(O)=C(Cl)C(Cl)=C(O)[C@]12C#N`, the GI50 was above 100 µM and the TGI is above 100 µM.

On to `O=C(OCc1ccc2ccccc2n1)c1cn(C2CC2)c2cc(N3CCN(Cc4ccc5ccccc5n4)CC3)c(F)cc2c1=O`, for which the GI50 is 63.6 µM and the TGI is above 100 µM.

Regarding `O=C(O)c1ccc(C(=O)c2ccccc2)c(C(=O)O)c1`, the TGI is above 100 µM.

The subject of another experiment is LOX IMVI melanoma. Description: NCI tumour cell line growth inhibition, 48 h.
For `O=C1NC(=O)C(N2C(=O)c3ccccc3C2=O)CC1O` (stereo not drawn), the GI50 was above 100 µM and the TGI was above 100 µM.

As for `COc1ccc2c(c1)N(CCO)C1=C(C(=O)OC1)C2c1cccc(F)c1` (stereo not drawn), the GI50 is 0.454 µM and the TGI was above 50 µM.

As for `C/C(=C\c1ccc2ccccc2c1)[N+](=O)[O-]`, the GI50 is 1.19 µM and the TGI came out at 2.8 µM.

Take `C=CC(=O)Nc1cccc(Oc2nc(Nc3ccc(N4CCN(C)CC4)cc3)nc3ccsc23)c1`: the GI50 is 1.69 µM and 1.75 µM; the TGI is 3.09 µM and 3.33 µM.

Regarding `OCc1ccc(N2CCCC2c2ccccc2)cc1Cl` (stereo not drawn), the GI50 is 9.67 µM and the TGI came out at 22.5 µM.

As for `COC1C=COC2(C)Oc3c(C)c(O)c4c(c3C2=O)/C(=N/C2CCC(O)OC2C)C=C(NC(=O)/C(C)=C\C(=O)C2CC2C(O)C(C)C(O)C(C)C(OC(C)=O)C1C)C4=O` (stereo not drawn), the TGI worked out at 3.24 µM.

For `CC(=O)/C=C/c1cn(C(=O)OC(C)(C)C)c2ccc(Br)cc12`, the GI50 was 10.7 µM and the TGI amounted to 25.2 µM.

Regarding `CCOc1ccccc1C(=O)N1CCN(c2cc(Cl)cc(Cl)c2)CC1`, the GI50 is 0.031 µM and the TGI is 13.1 µM.

For `NC(CSC1c2ccccc2-c2ccccc21)C(=O)O` (stereo not drawn), the TGI was above 100 µM.

For the compound `O=C1c2c(c3c4ccccc4[nH]c3c3ccc4ccccc4c23)C(=O)N1CCN1CCNCC1`, the GI50 was 1.63 µM and the TGI worked out at 3.11 µM.

`Cc1cc(S(=O)(=O)/N=C(/N)Nc2ccccc2O)c(SCc2ccccc2)cc1Cl`: the GI50 is 14.6 µM and the TGI was 33.5 µM.

Regarding `O=C1CCC(N2Cc3cc(CNC(=O)C(F)(F)c4ccc(Cl)cc4)ccc3C2=O)C(=O)N1` (stereo not drawn), the GI50 is above 100 µM and the TGI is above 100 µM.

Regarding `O=C(O)CN1CCN(CC(=O)O)CC(=O)[O][Hg][O]C(=O)C1`, the GI50 is 10.3 µM and the TGI stood at 26.7 µM.

`CCOC(=O)C1=C(C)N(c2ccc(Cl)cc2)[C@]2(C#N)C(O)=C(Cl)C(Cl)=C(O)[C@]12C#N`: the GI50 was 4.95 µM and the TGI is above 100 µM.

For the compound `O=C(OCc1ccc2ccccc2n1)c1cn(C2CC2)c2cc(N3CCN(Cc4ccc5ccccc5n4)CC3)c(F)cc2c1=O`, the GI50 is 29 µM and the TGI is above 89.5 µM.

In the case of `O=C(O)c1ccc(C(=O)c2ccccc2)c(C(=O)O)c1`, the TGI is above 100 µM.

The next experiment relates to ACHN renal. Description: NCI tumour cell line growth inhibition, 48 h.
As to `O=C1NC(=O)C(N2C(=O)c3ccccc3C2=O)CC1O` (stereo not drawn), the GI50 was above 100 µM and the TGI is above 100 µM.

With `COc1ccc2c(c1)N(CCO)C1=C(C(=O)OC1)C2c1cccc(F)c1` (stereo not drawn), the GI50 was 0.386 µM and the TGI was above 50 µM.

As to `C/C(=C\c1ccc2ccccc2c1)[N+](=O)[O-]`, the GI50 was 1.79 µM and the TGI turned out to be 3.34 µM.

Consider `C=CC(=O)Nc1cccc(Oc2nc(Nc3ccc(N4CCN(C)CC4)cc3)nc3ccsc23)c1`, for which the GI50 was 1.07 µM and the TGI was determined as 2.51 µM.

Turning to `OCc1ccc(N2CCCC2c2ccccc2)cc1Cl` (stereo not drawn), the GI50 was 11.7 µM and the TGI is 26.9 µM.

On to `COC1C=COC2(C)Oc3c(C)c(O)c4c(c3C2=O)/C(=N/C2CCC(O)OC2C)C=C(NC(=O)/C(C)=C\C(=O)C2CC2C(O)C(C)C(O)C(C)C(OC(C)=O)C1C)C4=O` (stereo not drawn), for which the TGI was 6.68 µM.

In the case of `CC(=O)/C=C/c1cn(C(=O)OC(C)(C)C)c2ccc(Br)cc12`, the GI50 was 11.6 µM and the TGI amounted to 24.8 µM.

For `CCOc1ccccc1C(=O)N1CCN(c2cc(Cl)cc(Cl)c2)CC1`, the GI50 is 0.051 µM and the TGI amounted to 14.6 µM.
